How the values were obtained:
[1] = molecular target: T1, mTORC2 (Homo sapiens, UniProt P42345); experiment: mTORC2 inhibitory activity in HeLa cells (Akt Ser473 phosphorylation, Western blot); assay type: cell-based; conditions: for selective inhibition of mTORC2: 40 μM, versus mTORC1; for selective inhibition of mTORC2 / remaining activity at 40 µM: 9 hours; for remaining activity at 40 µM: read-out: pSer473-AKT/AKT (% control); for inhibition at 40 µM: HeLa, 9 h, read-out: reduction in Akt Ser473 phosphorylation compared to the control group
T1 construct: the following experiments were conducted in HeLa cells; endogenous in cells; host or cells: HeLa
Experimental: (§1) Specifically, HeLa cells were cultured in a 5% CO2 incubator at 37° C. in DMEM (Dulbecco's Modified Eagles Media) medium supplemented with 10% FBS, penicillin (100 unit/ml), and streptomycin (100 μg/ml). Cultivation was started by seeding 4×10^5 cells in a 100 mm culture dish, and subculture was carried out every 3 days.
(§2) Human cell line HeLa cells were seeded in a 60 mm culture dish at a density of 2×10^5 cells/plate, and cultured for 24 hours. Then, HeLa cells were treated with 70 types of compounds at a concentration of 40 μM each for 9 hours. HeLa cells were washed twice with cold 1×PBS, and then lysed with 100 μl of RIPA buffer (50 mM Tris-HCl (pH7.4), 0.25% sodium deoxycholate, 50 mM NaF, 1% NP-40, 150 mM NaCl, 1 mM β-glycerophosphate, 1 mM PMSF, 1 mM NaVO4, 1 μg/ml leupeptin, 1 μg/ml pepstatin A, 10 nM calyculin A, 10 μg/ml aprotinin, 1 mM EDTA) to hemolyze the cell membrane. Then, the lysates were centrifuged at 12,000 rpm at 4° C. for 10 minutes to collect the supernatant, which is cell lysate. Protein concentration in the cell lysate was determined using the BCA protein assay kit (Thermo Fisher Scientific), and equal amounts of protein were separated by SDS-PAGE.
(§3) Western blot analysis was performed by the following method. […] After washing the membrane three times for 5 minutes each with TBS-T buffer, it was incubated with primary antibodies diluted in TBS-T buffer containing 5% skim milk or 5% BSA overnight at 4° C. Subsequently, the membrane was washed three times for 5 minutes each with TBS-T buffer, and then incubated with secondary antibodies diluted in TBS-T buffer containing 5% skim milk at room temperature for 30 minutes. The membrane was washed five times for 5 minutes each with TBS-T buffer containing 5% skim milk, and then the protein bands bound by the secondary antibody were detected using a chemiluminescence method. The primary antibodies used were Akt (cell signaling, #4691), pAkt(S473) (Cell signaling, #4060), p70S6K (Cell signaling, #S6198), pp70S6K(T389) (cell signaling, #9205S), LC3-II (MBL, #PM036), and the secondary antibodies used were HRP conjugated anti-rabbit (Jackson immunoresearch laboratory, #711-035-152) and HRP conjugated anti-mouse IgG (Jackson immunoresearch laboratory, #515-035-072).
As an mTORC2 activity indicator in HeLa cells, the level of Akt Ser473 phosphorylation was selected as a marker, and the phosphor-Akt (Ser473) signal obtained from Western blot analysis was normalized to the pan-Akt signal, and the data were expressed as a percentage relative to the control group treated with DMSO only, which is a vehicle.

[2] = molecular target: T2, mTORC1 (Homo sapiens, UniProt P42345); experiment: mTORC1 inhibitory activity in HeLa cells (p70S6K Thr389 phosphorylation, Western blot); assay type: cell-based; conditions: for remaining activity at 40 µM: 9 hours, read-out: pThr389-S6K/S6K (% control); for inhibition at 40 µM: HeLa, 9 h, read-out: reduction in p70S6K Thr389 phosphorylation compared to the control group
T2 construct: the following experiments were conducted in HeLa cells; endogenous in cells; host or cells: HeLa
Experimental: as §1, §2, §3
As an mTORC1 activity indicator in HeLa cells, the level of p70S6K Thr389 phosphorylation was selected as a marker, and the level of phosphor-p70S6K (Thr389) signal measured by Western blot analysis was normalized to a level of pan-p70S6K signal, and then expressed as a percentage of the control group treated with only DMSO, which is a vehicle.

[3] = test system: LC3-II; experiment: LC3-II formation as indicator of autophagy in HeLa cells (Western blot); assay type: cell-based, human; conditions: Homo sapiens, 9 hours, read-out: LC3-II (% control)
Experimental: as §1, §2, §3
LC3-II formation was selected as an indicator of autophagy in HeLa cells, and the LC3-II signal obtained from Western blot analysis was normalized to the pan-Akt signal and the data were expressed as a percentage relative to the control group treated with DMSO only, which is a vehicle.

| Structure (SMILES) | selective inhibition of mTORC2 [1] | remaining activity at 40 µM [1] [%] | inhibition at 40 µM [1] [%] | remaining activity at 40 µM [2] [%] | activity at 40 µM [3] [%] | inhibition at 40 µM [2] [%] |
| --- | --- | --- | --- | --- | --- | --- |
| O=C1c2cc(F)c(N3CCC(Cc4ccccc4)CC3)cc2COc2cc3c(cc21)OCO3 [HN2222, 8-(4-benzylpiperidin-1-yl)-9-fluoro[2]benzoxepino[3,4-f]-1,3-benzodioxol-11(6H)-one] | selectively inhibit mTORC2 | 69 | > 20 | 95 | 89 | – |
| O=C1c2cc(F)ccc2COc2cc3c(cc21)OCO3 [HN2203, 9-fluoro[2]benzoxepino[3,4-f]-1,3-benzodioxol-11(6H)-one] | selectively inhibit mTORC2 | 28 | > 20 | 179 | 119 | – |
| O=C1c2cc(-c3ccc(Cl)cc3)ccc2COc2cc3c(cc21)OCO3 [HN2214, 9-(4-chlorophenyl)[2]benzoxepino[3,4-f]-1,3-benzodioxol-11(6H)-one] | selectively inhibit mTORC2 | 67 | > 20 | 99 | 154 | – |
| O=C1c2cc3c(cc2OCc2c1ccc(NC1CCCCC1)c2F)OCO3 [HN2231, 8-(cyclohexylamino)-7-fluoro[2]benzoxepino[3,4-f]-1,3-benzodioxol-11(6H)-one] | – | 100 | – | 49 | 122 | > 20 |
| O=C1c2cc(F)c(N3CCCCC3)cc2COc2cc3c(cc21)OCO3 [HN2211, 8-(piperidinyl)-9-fluoro[2]benzoxepino[3,4-f]-1,3-benzodioxol-11(6H)-one] | – | 118 | – | 77 | 122 | > 20 |
| COc1cc2c(cc1OC)C(=O)c1cc(F)c(NC3CCCC3)cc1CC2 [HN2321, 2-(cyclopentylamino)-3-fluoro-7,8-dimethoxy-10,11-dihydro-5H-dibenzo[a,d][7]annulen-5-one] | – | 140 | – | 33 | 160 | > 20 |
| COc1cc2c(cc1OC)C(=O)c1cc(F)c(NCc3ccccc3)cc1CC2 [HN2317, 2-(benzylamino)-3-fluoro-7,8-dimethoxy-10,11-dihydro-5H-dibenzo[a,d][7]annulen-5-one] | – | 107 | – | 69 | – | > 20 |
| COc1ccc(-c2ccc3c(c2)C(=O)c2cc(OC)c(OC)cc2SC3)cc1 [HN2306, 2,3-dimethoxy-9-(4-methoxyphenyl)dibenzo[b,e]thiepin-11(6H)-one] | selectively inhibit mTORC2 | 64 | > 20 | 257 | – | – |
| O=C1c2cc3c(cc2OCc2c1ccc(NC1CC1)c2F)OCO3 [HN2318, 8-(cyclopropylamino)-7-fluoro-[1,3]dioxolo[4′,5′:4,5]benzo[1,2-b]benzo[e]oxepin-11(6H)-one] | selectively inhibit mTORC2 | 42 | > 20 | 109 | 227 | – |
| COc1cc2c(cc1OC)C(=O)c1cc(F)c(N3CCCCC3)cc1CC2 [HN2315, 3-fluoro-7,8-dimethoxy-2-(piperidin-1-yl)-10,11-dihydro-5H-dibenzo[a,d][7]annulen-5-one] | selectively inhibit mTORC2 | 28 | > 20 | 223 | 620 | – |
| COc1ccc(CNc2cc3c(cc2F)C(=O)c2cc4c(cc2OC3)OCO4)cc1 [HN2326, 9-fluoro-8-((4-methoxybenzyl)amino)-[1,3]dioxolo[4′,5′:4,5]benzo[1,2-b]benzo[e]oxepin-11(6H)-one] | selectively inhibit mTORC2 | 69 | > 20 | 153 | 404 | – |
| O=C1c2cc3c(cc2OCc2c1ccc(N1CCC(Cc4ccccc4)CC1)c2F)OCO3 [HN2232, 8-(4-benzylpiperidin-1-yl)-7-fluoro[2]benzoxepino[3,4-f]-1,3-benzodioxol-11(6H)-one] | selectively inhibit mTORC2 | 48 | > 20 | 136 | 64 | – |
| COc1cc2c(cc1OC)C(=O)c1cc(-c3ccc(Cl)cc3)ccc1CS2 [HN2309, 9-(4-chlorophenyl)-2,3-dimethoxydibenzo[b,e]thiepin-11(6H)-one] | selectively inhibit mTORC2 | 66 | > 20 | 106 | – | – |
| COc1cccc(CNc2cc3c(cc2F)C(=O)c2cc4c(cc2OC3)OCO4)c1 [HN2325, 9-fluoro-8-((3-methoxybenzyl)amino)-[1,3]dioxolo[4′,5′:4,5]benzo[1,2-b]benzo[e]oxepin-11(6H)-one] | – | 87 | – | 44 | 249 | > 20 |
| COc1ccc(CNc2cc3c(cc2F)C(=O)c2cc4c(cc2OC3)OCO4)cc1OC [HN2329, 8-((3,4-dimethoxybenzyl)amino)-9-fluoro-[1,3]dioxolo[4′,5′:4,5]benzo[1,2-b]benzo[e]oxepin-11(6H)-one] | – | 36 | > 20 | 57 | 386 | > 20 |
| COc1cc2c(cc1OC)C(=O)c1cc(-c3cc(OC)c(OC)c(OC)c3)ccc1CS2 [HN2305, 2,3-dimethoxy-9-(3,4,5-trimethoxyphenyl)dibenzo[b,e]thiepin-11(6H)-one] | – | 47 | > 20 | 64 | – | > 20 |
| COc1ccc(CCNc2ccc3c(c2F)COc2cc4c(cc2C3=O)OCO4)cc1 [HN2233, 8-((4-methoxyphenethyl)amino)-7-fluoro[2]benzoxepino[3,4-f]-1,3-benzodioxol-11(6H)-one] | selectively inhibit mTORC2 | 74 | > 20 | 107 | 121 | – |
| COc1cc2c(cc1OC)C(=O)c1cc(-c3ccc(C)cc3)ccc1CS2 [HN2307, 2,3-dimethoxy-9-(p-tolyl)dibenzo[b,e]thiepin-11(6H)-one] | selectively inhibit mTORC2 | 72 | > 20 | 106 | – | – |
| COc1cc2c(cc1OC)C(=O)c1cc(F)c(N3CCN(c4ccccc4)CC3)cc1CC2 [HN2316, 3-fluoro-7,8-dimethoxy-2-(4-phenylpiperazin-1-yl)-10,11-dihydro-5H-dibenzo[a,d][7]annulen-5-one] | – | 20 | > 20 | 38 | 256 | > 20 |
| COc1ccc(CNc2cc3c(cc2F)C(=O)c2cc4c(cc2OC3)OCO4)c(OC)c1 [HN2328, 8-((2,4-dimethoxybenzyl)amino)-9-fluoro-[1,3]dioxolo[4′,5′:4,5]benzo[1,2-b]benzo[e]oxepin-11(6H)-one] | selectively inhibit mTORC2 | 78 | > 20 | 86 | 340 | – |

Source: patent US20260265267A1, “NOVEL COMPOUNDS WITH MTORC2-INHIBITORY ACTIVITY AND USES THEREOF” (Aliad Biopharma, priority 2023, published 2026)
